The results in this text go back to US4279909A, “Antiallergic method” (Fujisawa Pharmaceutical Co., Ltd., priority 1980, dated 1981).

Counter-ions that a name gives are not always drawn.

In one data set the test system is P.C.A. reaction. The data set is described as follows: Passive cutaneous anaphylaxis (P.C.A.) in rats sensitized with homologous hyperimmune antiserum. Format: in vivo. As to conditions: iv, rat, intravenously 30 seconds before antigen, read-out: ED50 (inhibitory effect of P.C.A. reaction). How it is done:
(b) Rat hyperimmune antiserum against egg albumin
Male Sprague-Dawley JCL strain rats were injected in the four foot pads with 10 mg of egg albumin emulsified in 0.5 ml of saline and 0.5 ml of Freund's complete adjuvant in divided portions. Seven days later, the animals were injected intramuscularly at three sites on a shaved area of their backs with a total of 5 mg of egg albumin emulsified in 0.5 ml of saline and 0.5 ml of Freund's complete adjuvant. On days 28 to 30, the animals were injected intracutaneously at two sites on the back with 0.2 mg of egg albumin in 0.2 ml of saline. The antiserum was obtained 7 days after the last injection and stored at -20° C.
(3) Passive cutaneous anaphylaxis (P.C.A.) in rats sensitized with homologous hyperimmune antiserum
P.C.A. reaction was performed in male Sprague-Dawley JCL strain rats passively sensitized with homologous hyperimmune antiserum against egg albumin. That is, 0.1 ml of the antiserum was injected into the skin on the back of rats, and 4 hours later 1 ml of mixture of egg albumin 5 mg and Evans' blue 5 mg was injected intravenously. One hour later, the animals were killed and the skin was removed. Evans' blue was then extracted from the sensitized spot with 10 ml of 4:1 mixture of aceton and 2% solution of RBS-25. The quantity of Evans' blue was determined by colorimetry at 620 mμ. The drug was given intravenously 30 seconds before dosing with antigen.

Data set [1] has as its system passive cutaneous anaphylaxis (P.C.A.). The data set is described as follows: Antagonism to passive cutaneous anaphylaxis (P.C.A.) in rat sensitized with homologous reaginic antiserum. Conditions: test compound given orally 2 hours and intravenously 5 minutes before antigen. The format is in vivo. The method, then:
(a) Rat reaginic antiserum against egg albumin
One mg of egg albumin emulsified in 0.5 ml of B. pertussisdiphtheria mixed vaccine (Tanabe Seiyaku Company Ltd.) and 0.5 ml of Freund's incomplete adjuvant (Difco) was used as the antigen. The emulsion was given subcutaneously in a single dose of 1 ml divided equally (0.25 ml) to the four foot pads of male Sprague-Dawley JCL strain rats aged 6 weeks, each weighing 170-220 g. Blood samples were collected from the femoral artery 12 days after injection, and centrifuged at 3000 r.p.m. at 4° C. for 15 minutes. The antisera thus obtained were stored at -20° C.
(2) Antagonism to passive cutaneous anaphylaxis (P.C.A.) in rat sensitized with homologous reaginic antiserum
Ten male Sprague-Dawley-JCL strain rats, weighing 290-310 g were used for each dose. The rat reaginic antiserum against egg albumin was used at a dilution 1:4. The animals were sensitized with 0.1 ml of the antiserum injected intracutaneously on the depilated backs of the rats. […] It was further centrifuged at 2000 r.p.m. for 15 minutes and the quantity of the dye in the supernatant solution was determined by colorimetry at 620 mμ. […] The inhibitory effect of test compound was determined from the dye amounts measured in comparison with the control group and the treated group and the ED50 value was calculated according to Litchfield-Wilcoxon method.

Data set [2] concerns anaphylactic bronchoconstriction. As to the kind of experiment: Anaphylactic bronchoconstriction in guinea-pigs sensitized with homologous antiserum. The format is in vivo. As to conditions: Cavia porcellus, iv; guinea-pig; intravenously 30 seconds before antigen. The method, then: (c) Guinea-pig antiserum against egg albumin
Five mg of egg albumin emulsified in 0.5 ml of physiological saline and 0.5 ml of Freund's incomplete adjuvant was used as the antigen.
The emulsion was given subcutaneously in a single dose of 1 ml divided equally (0.25 ml) to the four foot pads of male Hartly strain guinea pigs, each weighing 250 to 300 g. Starting two weeks after dosing with the aforementioned emulsion 0.1% egg albumin emulsified in physiological saline was given subcutaneously in equally divided (0.1 ml) doses of 0.4 ml once a week for 4 weeks to four sites on the backs of the test animals. Blood samples were collected from the carotid artery one week after the last injection, and centrifuged at 3000 r.p.m. at room temperature for 15 minutes. The antisera thus obtained were stored at -20° C.
(4) Anaphylactic bronchoconstriction in guinea-pigs sensitized with homologous antiserum
Male Hartly strain guinea-pigs were sensitized with an intravenous injection of 1 ml of homologous antiserum against egg albumin. And 48 hours later, the animals were immobilized with an intraperitoneal dose of 100 mg/kg of gallamine. The trachea was cannulated for artificial respiration which was performed with a miniature respiratory pump (3 ml/stroke, 60 strokes/minute). […]

A further data set can be described thus: Acute toxicity in mouse. Conditions: in vivo, po; female mouse, orally, seven days. The method, then:
(§1) (6) Acute toxicity in mouse and rat
(§2) Each ten male and female ICR-JCL strain mice and Sprague-Dawley-JCL strain rats were used for each dose.
(§3) Test compound was given to animals in a form of suspension in 0.5% methyl cellose orally. After administration, the incidence of the death was recorded for successive seven days. LD50 values were calculated by the method of Lichfield-Wilcoxon method.

Another data set is described as follows: Acute toxicity in rat. As to conditions: in vivo, po; female rat, orally, seven days. The method, then:
as §1, §2, §3

In a further data set the test system is histamine. The data set is described as follows: Antagonistic effect on histamine in vitro (isolated guinea-pig ileum). Conditions: histamine 1.0 × 10^-7 g/ml. The method, then:
(5) Antagonistic effect on histamine in vitro
The ileum was connected to a strain gauge transducer and the contractions were recorded isometrically.

Consider `O=C(Cn1c(=O)sc2ccc(Cl)cc21)N1CCNCC1` [Compound A, 3-(1-piperazinyl)carbonylmethyl-5-chloro-2-benzothiazolinone], for which the ED50 in the data set with P.C.A. reaction is 9 mg/kg; in data set [1] it was 50 mg/kg; in data set [2] it was 56 mg/kg. The LD50 at 168 h in the data set “Acute toxicity in mouse” worked out at 219 mg/kg; in the data set “Acute toxicity in rat” it was 734 mg/kg. The “Percentage inhibition of histamin” value in the data set on histamine (1.0 × 10^-5 g/ml test compound) is on record as 14%; in the data set on histamine (1.6 × 10^-4 g/ml test compound) it was 82%; with histamine (4.0 × 10^-5 g/ml test compound) it was 48%; with histamine (8.0 × 10^-5 g/ml test compound), 59%.

Turning to `O=C(Cn1c(=O)sc2ccc(Cl)cc21)N1CCN(CCO)CC1` [Compound B, 3-[4-(2-hydroxyethyl)-1-piperazinylcarbonylmethyl]-5-chloro-2-benzothiazolinone hydrochloride], the ED50 in the data set on P.C.A. reaction worked out at 28 mg/kg.

In the case of `O=C(Cn1c(=O)sc2ccc(Cl)cc21)N1CCC(O)CC1` [Compound C, 3-(4-hydroxypiperidino)carbonylmethyl-5-chloro-2-benzothiazolinone], the 50% effective dose (ED50) with P.C.A. reaction was 32 mg/kg.

Consider `O=C(O)c1cc(=O)c2c(OCC(O)COc3cccc4oc(C(=O)O)cc(=O)c34)cccc2o1` [Compound D, disodium chromoglycate, reference compound], for which the ED50 with P.C.A. reaction stood at 105 mg/kg. Further, the “Percentage inhibition of histamin” value with histamine (1.0 × 10^-5 g/ml test compound) came to 2%; in the data set on histamine (1.6 × 10^-4 g/ml test compound) it was 1%; with histamine (4.0 × 10^-5 g/ml test compound), 4%.
